These molecules were tested on BaF3 V617F cells; UKE-1 (assay: Proliferation Assay (Cell Titer-Glo; Example 7)). Details: proliferation 72 hours, inhibit JAK2 activity, cell line (BaF3 V617F or UKE-1) not stated.
Format: cell-based
Method in brief: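 Proliferation IC50s reflect 72 h compound exposure at 37 °C, read by Cell Titer-Glo luminescence. Compound was serially diluted 3-fold from a 5 mM DMSO stock and added as a 2× solution; BaF3 V617F cells were grown in RPMI/10% FBS, UKE-1 in Iscove's DMEM with FBS, equine serum and hydrocortisone.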

| Molecule | IC50 |
| --- | --- |
| CCNS(=O)(=O)NCc1ccc(Nc2nc(Nc3ccc(C4CCN(C)CC4)cc3)ncc2C)cc1 [II-124, N4-[(4-(Ethylamino)sulfonylamino)methylphenyl]-5-methyl-N2-[4-(1-methyl-4-piperidinyl)pheny]-2,4-pyrimidinediamine] | 1160 nM |
| COc1cc(Nc2ncc(C)c(Nc3ccc(CNS(=O)(=O)N(C)C)cc3)n2)cc(OC)c1OC [II-103, N4-[(4-(Dimethylamino)sulfonylamino)methylphenyl]-5-methyl-N2-(3,4,5-trimethoxyphenyl)-2,4-pyrimidinediamine] | 509 nM |
| CCOc1c(C)cc(Nc2ncc(Cl)c(Nc3ccc(CNS(=O)(=O)C4CC4)cc3C)n2)cc1C [II-151, 5-Chloro-N2-(3,5-dimethyl-4-ethoxyphenyl)-N4-[2-methyl-4-(N-cyclopropylsulfonylamino)methylphenyl]-2,4-pyrimidinediamine] | 398 nM |
| COc1c(C)cc(Nc2ncc(Cl)c(Nc3ccc4c(c3)S(=O)(=O)NCC4)n2)cc1C [VII-1, 5-Chloro-N4-[3,4-dihydro-1,1-dioxide-2H-1,2-benzothiazin-7-yl]-N2-[3,5-dimethyl-4-methoxyphenyl]-2,4-pyrimidinediamine] | 229 nM |
| COc1c(Cl)cc(Nc2ncc(Cl)c(Nc3ccc(CNS(=O)(=O)N(C)C)cc3)n2)cc1Cl [II-94, 5-Chloro-N2-[3,5-dichloro-4-methoxyphenyl]-N4-[(4-(dimethylamino)sulfonylamino)methylphenyl]-2,4-pyrimidinediamine] | 13500 nM |
| 5-Chloro-N2-[3,4-dimethyl-4-(2-(4-morpholinyl)ethoxy)phenyl]-N4-[4-((N-cyclopropylamino)sulfonylamino)methylphenyl]-2,4-pyrimidinediamine [II-170] | 40.2 nM |
| 5-Chloro-N4-[3,4-dihydro-1,1-dioxide-2H-1,2-benzothiazin-7-yl]-N2-[4-(N-methylpiperizin-4-yl)phenyl]-2,4-pyrimidinediamine [VII-2] | 371 nM |
| CCc1cnc(Nc2ccc(C3CCN(C)CC3)cc2)nc1Nc1ccc(CNS(=O)(=O)C2CC2)cc1 [II-88, N4-[4-(N-Cyclopropylsulfonylamino)methylphenyl]-5-ethyl-N2-[4-(1-methyl-4-piperidinyl)pheny]-2,4-pyrimidinediamine] | 833 nM |
| Cc1cc(N2CCN(C)CC2)ccc1Nc1ncc(Cl)c(Nc2ccc(CCNS(=O)(=O)C3CC3)cc2)n1 [II-52, 5-Chloro-N4[4-(N-cyclopropylsulfonylamino)ethylphenyl]-N2-[4-(4-methylpiperazino)-2-methylphenyl]-2,4-pyrimidinediamine] | 6120 nM |

Further molecules by falling IC50, results first:

| IC50 | Molecule |
| --- | --- |
| 179 nM | COc1c(C)cc(Nc2ncc(C)c(Nc3ccc4c(c3)CCN(S(=O)(=O)C3CC3)C4)n2)cc1C [VIII-9, N4-[(N-cyclopropylsulfonyl)-1,2,3,4-tetrahydroisoquinolin-6-yl]-N2-(3,5-dimethyl-4-methoxy)phenyl-5-methyl-2,4-pyrimidinediamine] |
| 174 nM | COc1c(C)cc(Nc2ncc(C)c(Nc3ccc(CNS(=O)(=O)C4CC4)cc3)n2)cc1C [II-201, 5-Methyl-N4-[4-(N-cyclopropylsulfonylamino)methylphenyl]-N2-[3,5-dimethyl-4-methoxyphenyl]-2,4-pyrimidinediamine] |
| 83.1 nM | CCOc1c(C)cc(Nc2ncc(Cl)c(Nc3ccc(CNS(=O)(=O)NC4CC4)cc3)n2)cc1C [II-155, 5-Chloro-N4-[4-((N-cyclopropylamino)sulfonylamino)methylphenyl]-N2-(3,5-dimethyl-4-ethoxyphenyl)-2,4-pyrimidinediamine] |
| 42.9 nM | COc1c(C)cc(Nc2ncc(Cl)c(Nc3ccc(CNS(=O)(=O)NC4CC4)cc3)n2)cc1C [II-154, 5-Chloro-N4-[4-((N-cyclopropylamino)sulfonylamino)methylphenyl]-N2-(3,5-dimethyl-4-methoxyphenyl)-2,4-pyrimidinediamine] |
